Experimental data published in patent US4361553A, “Therapeutic uses of dynorphin” (Regents of the University of California, priority 1981, dated 1982).

Key:
naive mice = assay: Tail-flick analgesia, morphine s.c. with or without dynorphin-(1-13) i.c.v., naive group (Example III); format: in vivo
Description: (§1) Male simonesen ICR mice (Gilroy, CA) weighing between 20-25 g were housed for at least one day prior to experimentation, and used within 5 days. Each mouse was used only once.
(§2) Analgesia was measured by the tail-flick method of D'Amour and Smith, J.Pharmac.Exp.Ther., 72, pp. 74-79 (1941), incorporated herein by reference, as modified by Tulunay and Takemori, J.Pharmac.Exp.Ther., 190, pp. 395-400 (1974), incorporated herein by reference. […] Nonresponding animals were removed from the heat stimulus when reaction times exceeded 10 sec. to avoid the tail damage.
(§3) Drugs were injected 30 min prior to testing, unless otherwise indicated.
(§4) The animals were separated into two groups.
(§5) The ED50 values, their 95% confidence limits and significance of the potency ratio between two ED50 values were determined by the method of Litchfield and Wilcoxon, J.Pharmacol.Exp.Ther, 96:99-113 (1949), incorporated herein by reference.

[1] = Addictiveness compared with morphine; format: in vivo
morphine tolerant mice [2] = assay: Tail-flick analgesia, morphine s.c. with or without dynorphin-(1-13) i.c.v., morphine tolerant group (Example I); format: in vivo; conditions: dynorphin alone up to 50 μg/mouse
Description: as §1, §2, §3, §4, §5

guinea pig ileum = conditions: cited from earlier work
morphine dependent mice = assay: Spontaneous withdrawal jumping after removal of morphine pellets (Example IV); format: in vivo; conditions: compared with saline
Description: Mice which jumped were separated and received 4 μl of saline i.c.v. or different doses of dynorphin, and tested 30 min and then 60 min after injection.

mouse vas deferens = conditions: cited from earlier work
morphine tolerant mice [3] = assay: Tail-flick analgesia, β-endorphin i.c.v. with or without dynorphin-(1-13) i.c.v., morphine tolerant group (Example II); format: in vivo; conditions: for ED50 of β-endorphin: i.c.v.
Description: as §1, §2, §3, §4, §5

CN1CC[C@]23c4c5ccc(O)c4O[C@H]2[C@@H](O)C=C[C@H]3[C@H]1C5.O=S(=O)(O)O [Morphine, morphine sulfate]
Analgesia (%) (naive mice; morphine 2 mg/kg s.c. alone): 10%
Analgesia (%) (naive mice; morphine 4 mg/kg s.c. alone): 30%
Analgesia (%) (naive mice; morphine 7.5 mg/kg s.c. alone): 80%

CC[C@H](C)[C@H](NC(=O)[C@H](CCCNC(=N)N)NC(=O)[C@H](CCCNC(=N)N)NC(=O)[C@H](CC(C)C)NC(=O)[C@H](Cc1ccccc1)NC(=O)CNC(=O)CNC(=O)[C@@H](N)Cc1ccc(O)cc1)C(=O)N[C@@H](CCCNC(=N)N)C(=O)N1CCC[C@H]1C(=O)N[C@@H](CCCCN)C(=O)N[C@@H](CC(C)C)C(=O)N[C@@H](CCCCN)C(=O)O [dynorphin-(1-13)]
Times less addictive than morphine [1]: at least 100 times

dynorphin
Own analgesic potency (morphine tolerant mice [2]): no analgesic potency
Agonist properties in guinea pig ileum (guinea pig ileum): potent agonist properties
Effect on withdrawal (morphine dependent mice): significantly reduced, or repressed, withdrawal
Agonist properties in mouse vas deferens (mouse vas deferens): potent agonist properties

β-endorphin
ED50 of β-endorphin (morphine tolerant mice [3]; in the presence of 10 μg dynorphin-(1-13)): about 1.00 μg/mouse
ED50 of β-endorphin (morphine tolerant mice [3]; in the presence of 20 μg dynorphin-(1-13)): about 0.55 μg/mouse
Analgesia (%) (morphine tolerant mice [3]; β-endorphin 1 μg/mouse i.c.v. alone): 10%
Analgesia (%) (morphine tolerant mice [3]; β-endorphin 2 μg/mouse i.c.v. alone): 40%
Analgesia (%) (morphine tolerant mice [3]; β-endorphin 6 μg/mouse i.c.v. alone): 100%
